# Assay results as given in patent US20220290103A1, “METHODS AND COMPOSITIONS USING AUXOTROPHIC REGULATABLE CELLS” (AUXOLYTIC LTD, priority 2019, published 2022).
# Key:
# [1] = tested on: K562 cells with wild-type UMPS; test: K562 xenograft model, bioluminescence imaging; format: in vivo, NSG mice; conditions: UTA supplemented food (same with normal food)
# From the text: (§1) For the K562 xenograft assay, 6 to 12 weeks old male NOD SCID gamma mouse (NSG) mice were transplanted with 1×10^6 K562 cells resuspended in […]® protein mixture (Corning, Inc.) 1:1 diluted with PBS under anesthesia. All animals were kept and handled according to institutional guidelines and the experimental protocol was approved by Stanford University's Administrative Panel on Laboratory Animal Care.
# (§2) The previously engineered UMPSK^KO/KO K562 cell line expressing firefly luciferase (FLuc) was used in a xenograft model in NSG mice. […] Cas9 RNP is targeted to exon 1 of the HBB locus with a guide RNA and a DNA donor template transduced by rAAV6 which carries a FLuc-2A-GFP-polyA cassette under control of the SFFV promoter. FACS analysis was performed four days after targeting of K562 cells to evaluate GFP expression before sorting of the GFP+ population. In a control group administered the AAV only, 1.61% of the cells were GFP+, and […]. […]
# (§3) UMPSK^KO/KO K562 cells or control cells were transplanted subcutaneously and observed weekly with bioluminescence imaging. Luminescence imaging of K562 cells was performed 5 minutes after intraperitoneal (ip) injection of 125 mg/kg D-Luciferin (PerkinElmer) on an IVIS Spectrum imaging system (PerkinElmer). […]
# UMPS^KO/KO K562 cells = test: K562 xenograft model, bioluminescence imaging; format: in vivo, NSG mice; conditions: mice fed with 8% UTA
# From the text: as §1, §2, §3
# [2] = cited from earlier work
structure (smiles),measurement,setting,value
"CC(=O)OC[C@H]1O[C@@H](n2ccc(=O)[nH]c2=O)[C@H](OC(C)=O)[C@@H]1OC(C)=O [UTA, uridine triacetate]",Tumor burden of UMPS wild-type K562 cells,[1],increase in tumor burden
same,Luminescence of UMPS^KO/KO K562-derived tumors,UMPS^KO/KO K562 cells,increased
same,Increase of uridine serum levels,"[2]; humans and mouse models, administration as prodrug",greater than 10 fold
same,Tolerability,"[2]; mice, food enriched with 8% (w/w) UTA",well tolerated
